Data as given in patent publication US12281225B2, “Process for preparing stable polymers containing vinylimidazole” (BASF SE, priority 2018, dated 2025).

Columns and labels:
[1] = Iodine color number according to DIN 6162:2014-09; assay type: physicochemical
[2] = Analysis of active substance: preservative concentration before and after storage in VI-containing polymer solution; assay type: physicochemical; conditions: for active-substance concentration, 0 d, RT: before storage; for active-substance concentration, 14 d, 40° C.: storage 14 d at 40° C.; for active-substance concentration, 28 d, 40° C.: storage 28 d at 40° C.; for active-substance concentration, 60 d 40° C.: storage 60 d at 40° C.
Procedure: Stability of Preservatives in VI-Containing Polymers:
The following stabilizers for VI-containing polymers (here: aqueous solution of a copolymer of vinylpyrrolidone and vinylimidazole) were tested.
MIT, BIT, CMIT, OIT, DCOIT and iodopropynyl butyl carbamate were determined by RP chromatography with UV detection after dilution of the sample to be tested. An RP18 column was used for this purpose, with an eluent composed of an acid-methanol mixture under isocratic conditions.

[3] = Physical stability; visual assessment (color, turbidity, phase separation); assay type: physicochemical; design: key: ++: no discernible change with respect to color, turbidity or phase separation; +: marginal change in color number, somewhat increased Tyndall effect but no turbidity; 0: easily discernible increase in color number and moderate turbidity−no phase separation; −: turbidity and change in color number readily discernible by visual assessment; −−: strong color change with strong turbidity and incipient phase separation
Outline: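 Samples were inspected visually for color, turbidity and phase separation and scored on a five-step scale. Scores run from ++ (no discernible change) to −− (strong color change, strong turbidity, incipient phase separation).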

[4] = test system: Bacteria: Escherichia coli, Staphylococcus aureus, Pseudomonas aeruginosa, Pseudomonas putida, Burkholderia cepacia, Alcaligenes faecalis; experiment: Preservation test with periodic inoculation, bacteria assessment; assay type: cell-based; conditions: for Start sample measurement, bact. assess., 4th inoculation: freshly formulated; for 60 d 40° C., bact. assess., 4th inoculation: sample stored 60 d at 40° C.
Procedure: Microbiological results at the start (freshly formulated, i.e. 4-week test series is started immediately) and after 60 days of storage at 40° C. (i.e. the 4-week microbial testing is started with the sample stored at 40° C. for 60 days)
The test described below is carried out in order to ascertain the preserving effect of chemical preservatives in aqueous products and systems, the principle of the described method reflecting the efficacy of chemical preservatives with respect to pot-maintenance of aqueous products/systems under conditions corresponding to the use of laundry products/consumer products by the consumer. For this purpose, the preservatives to be tested are added in those concentrations which correspond to from the literature or to the manufacturer data from the suppliers (e.g. Thor, Speyer). In said test, our orientation was toward the upper range, which, with the exception of VI-containing polymers, had always led to excellent results in the case of aqueous polymers for laundry.
A constant microorganism load is achieved by periodic inoculation of the test batches. Before the swabs of each batch made respectively immediately in parallel with the inoculation. The assessment is made on the basis of the microbial growth of the streaks.
When carrying out said tests, 25 g of the polymer to be tested are weighed in each case into a vessel with a screw cap. The preservatives to be tested are each added in separate batches according to the specified use concentrations. An unpreserved product sample was used in each case for the growth control. Two days after the addition of the preservative, the samples are infected with 0.5 ml of inoculum (2% w/w). The titer of this inoculant solution is 10^9 organisms per ml. The following microorganisms are the test organisms for the preservation test:
• Escherichia coli • Staphylococcus aureus • Pseudomonas aeruginosa • Pseudomonas putida • Burkholderia cepacia • Alcaligenes faecalis Yeast: • Candida albicans • Candida valida • Rhodotorula rura • Saccharomyces cerevisiae
The test batches are inoculated four times altogether and once a week and are streaked on an agar plate once a week; the first streaking is done immediately before the new inoculation. Microbial growth on the agar surface is assessed after a three-day incubation at 25° C. As a precaution, negative swabs are additionally observed for a further three days and reassessed. The preserving effect is effected in a semiquantitative method via the growth of the individual streaks in accordance with the assessment from − via + to +++. The preservative result is repeatedly demonstrably robust, i.e. +++− defines the microbial growth.
When assessing the results, it is assumed that a preservative can be regarded as good if there are batches under the above-described laboratory conditions for a period of four weeks without microbial invasion of the sample, and that, even after the fourth inoculation, no microbial attacks occur growth can be identified. • −−: no growth • −: slight growth, max. 100 colonies • 0: moderate growth, max. 400 colonies • +: uniform growth with individual colonies still easily identifiable • ++: strong growth; too many colonies to be counted, already some extensive growth

[5] = Polymer P5 (HP56) with stabilizer

SMILES: O=c1[nH]sc2ccccc12 [BIT, 1,2-benzisothiazolin-3-one]
- Iodine color number, 60 d 40° C. ([1]; Polymer P1 with stabilizer): 6.0
- Iodine color number, start ([1]; Polymer P1 with stabilizer): 2.6
- Iodine color number, 60 d 40° C. ([1]; Polymer P2 with stabilizer): 7.1
- Iodine color number, start ([1]; Polymer P2 with stabilizer): 2.9
- Iodine color number, 60 d 40° C. ([1]; Polymer P3 with stabilizer): 9.3
- Iodine color number, start ([1]; Polymer P3 with stabilizer): 3.4
- Iodine color number, 60 d 40° C. ([1]; Polymer P4 with stabilizer): 9.2
- Iodine color number, start ([1]; Polymer P4 with stabilizer): 3.4
- Iodine color number, 60 d 40° C. [1, 5]: 10.4
- Iodine color number, start [1, 5]: 3.6
- Iodine color number, 60 d 40° C. ([1]; Polymer P6 with stabilizer): 10.0
- Iodine color number, start ([1]; Polymer P6 with stabilizer): 3.6
- Iodine color number, 60 d 40° C. ([1]; Polymer P7 with stabilizer): 10.0
- Iodine color number, start ([1]; Polymer P7 with stabilizer): 3.6
- Iodine color number, 60 d 40° C. ([1]; Polymer P8 with stabilizer): 10.4
- Iodine color number, start ([1]; Polymer P8 with stabilizer): 3.4
- Iodine color number, 60 d 40° C. ([1]; Polymer P9 with stabilizer): 12.8
- Iodine color number, start ([1]; Polymer P9 with stabilizer): 4.0
- active-substance concentration, 0 d, RT ([2]; in Polymer P1): 150 ppm
- active-substance concentration, 14 d, 40° C. ([2]; in Polymer P1): 101 ppm
- active-substance concentration, 28 d, 40° C. ([2]; in Polymer P1): 85 ppm
- active-substance concentration, 60 d 40° C. ([2]; in Polymer P1): 69 ppm
- active-substance concentration, 0 d, RT ([2]; in Polymer P2): 150 ppm
- active-substance concentration, 14 d, 40° C. ([2]; in Polymer P2): 112 ppm
- active-substance concentration, 28 d, 40° C. ([2]; in Polymer P2): 93 ppm
- active-substance concentration, 60 d 40° C. ([2]; in Polymer P2): 80 ppm
- active-substance concentration, 0 d, RT ([2]; in Polymer P3): 150 ppm
- active-substance concentration, 14 d, 40° C. ([2]; in Polymer P3): 119 ppm
- active-substance concentration, 28 d, 40° C. ([2]; in Polymer P3): 99 ppm
- active-substance concentration, 60 d 40° C. ([2]; in Polymer P3): 80 ppm
- active-substance concentration, 0 d, RT ([2]; in Polymer P4): 150 ppm
- active-substance concentration, 14 d, 40° C. ([2]; in Polymer P4): 117 ppm
- active-substance concentration, 28 d, 40° C. ([2]; in Polymer P4): 93 ppm
- active-substance concentration, 60 d 40° C. ([2]; in Polymer P4): 82 ppm
- active-substance concentration, 0 d, RT ([2]; in Polymer P5 (HP56)): 150 ppm
- active-substance concentration, 14 d, 40° C. ([2]; in Polymer P5 (HP56)): 101 ppm
- active-substance concentration, 28 d, 40° C. ([2]; in Polymer P5 (HP56)): 85 ppm
- active-substance concentration, 60 d 40° C. ([2]; in Polymer P5 (HP56)): 69 ppm
- active-substance concentration, 0 d, RT ([2]; in Polymer P6): 150 ppm
- active-substance concentration, 14 d, 40° C. ([2]; in Polymer P6): 99 ppm
- active-substance concentration, 28 d, 40° C. ([2]; in Polymer P6): 83 ppm
- active-substance concentration, 60 d 40° C. ([2]; in Polymer P6): 66 ppm
- active-substance concentration, 0 d, RT ([2]; in Polymer P7): 150 ppm
- active-substance concentration, 14 d, 40° C. ([2]; in Polymer P7): 105 ppm
- active-substance concentration, 28 d, 40° C. ([2]; in Polymer P7): 88 ppm
- active-substance concentration, 60 d 40° C. ([2]; in Polymer P7): 72 ppm
- active-substance concentration, 0 d, RT ([2]; in Polymer P8): 150 ppm
- active-substance concentration, 14 d, 40° C. ([2]; in Polymer P8): 101 ppm
- active-substance concentration, 28 d, 40° C. ([2]; in Polymer P8): 85 ppm
- active-substance concentration, 60 d 40° C. ([2]; in Polymer P8): 69 ppm
- active-substance concentration, 0 d, RT ([2]; in Polymer P9): 150 ppm
- active-substance concentration, 14 d, 40° C. ([2]; in Polymer P9): 97 ppm
- active-substance concentration, 28 d, 40° C. ([2]; in Polymer P9): 78 ppm
- active-substance concentration, 60 d 40° C. ([2]; in Polymer P9): 60 ppm
- Physical stability, 60 d 40° C.* ([3]; Polymer P1 with stabilizer): −
- Physical stability, 60 d 40° C.* ([3]; Polymer P2 with stabilizer): −
- Physical stability, 60 d 40° C.* ([3]; Polymer P3 with stabilizer): −
- Physical stability, 60 d 40° C.* ([3]; Polymer P4 with stabilizer): −
- Physical stability, 60 d 40° C.* [3, 5]: −
- Physical stability, 60 d 40° C.* ([3]; Polymer P6 with stabilizer): −
- Physical stability, 60 d 40° C.* ([3]; Polymer P7 with stabilizer): −
- Physical stability, 60 d 40° C.* ([3]; Polymer P8 with stabilizer): −−
- Physical stability, 60 d 40° C.* ([3]; Polymer P9 with stabilizer): −
- Start sample measurement, bact. assess., 4th inoculation ([4]; Polymer P1): − (slight growth, max. 100 colonies)
- 60 d 40° C., bact. assess., 4th inoculation ([4]; Polymer P1): +
- Start sample measurement, bact. assess., 4th inoculation ([4]; Polymer P2): − (slight growth, max. 100 colonies)
- 60 d 40° C., bact. assess., 4th inoculation ([4]; Polymer P2): ++
- Start sample measurement, bact. assess., 4th inoculation ([4]; Polymer P3): − (slight growth, max. 100 colonies)
- 60 d 40° C., bact. assess., 4th inoculation ([4]; Polymer P3): ++
- 60 d 40° C., bact. assess., 4th inoculation ([4]; Polymer P4): +
- 60 d 40° C., bact. assess., 4th inoculation ([4]; Polymer P5 (HP56)): ++
- 60 d 40° C., bact. assess., 4th inoculation ([4]; Polymer P6): +
- 60 d 40° C., bact. assess., 4th inoculation ([4]; Polymer P7): ++
- Start sample measurement, bact. assess., 4th inoculation ([4]; Polymer P8): − (slight growth, max. 100 colonies)
- 60 d 40° C., bact. assess., 4th inoculation ([4]; Polymer P8): +
- 60 d 40° C., bact. assess., 4th inoculation ([4]; Polymer P9): ++
